Drawing on paper PMC6182184 (2018), this text covers Kd for five molecules.

This test relates to SRB-2 (RNA, aptamer) GGAACCUCGCUUCGGCGAUGAUGGAGAGGCGCAAGGUUAACCGCCUCAGGUUCC
Description: fluorescence titration. To be noted: 125 mM KCl, 5 mM MgCl2, 20 mM Hepes pH 7.4, 25 °C, RNA titrated.

For orientation: Kd means the concentration at which binding is half-saturated. Low readings indicate a tighter complex, high ones a looser complex. `Nc1c2ccccc2nc2ccccc12`: the Kd (50 nM probe) is 2960 ± 240 nM. Under “10 nM probe”, `CN(C)c1ccc2cc3ccc(N(C)C)cc3nc2c1` displayed a Kd of 88 ± 8 nM. Still for that read-out and setting: as for `CN(C)c1ccc2cc3ccc(N(C)C)cc3[o+]c2c1`, the figure is 59 ± 9 nM.

For `CCN(CC)c1ccc2nc3ccc(N(CC)CC)cc3[o+]c2c1`, the Kd (50 nM probe) came to 260 ± 21 nM. Turning to `CCN(CC)c1ccc2cc3ccc(=[N+](CC)CC)cc-3oc2c1`, the Kd (10 nM probe) is 251 ± 50 nM.
